Measurements: PubChem BioAssay AID1963869 (Molecular Pharmacology Branch, DTP, NCI, 2024)
Active and inactive are the calls of the source. Rule for the calls: active = viability on the fitted dose curve at most 10% of control; inactive = the rest.

Tested on: KRAS patient-derived spheroids with HUVEC/MSC, viability
Assay: Anticancer human tumor 323965-272-R-J2-PDC patient-derived pancreatic carcinoma cell line growth inhibition [KRAS2]
Conditions: second compound 3.16 µM; first compound 0.1 µM; active compounds read low
Method in brief: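 KRAS-mutant tumor cells were grown as spheroids with HUVEC endothelial cells and human MSCs as stroma. Targeted agents were tested alone and with KRAS pathway inhibitors. Doses started at or near clinical Cmax, or 10 microM, descending half-log.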
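Throughout, for viability, T/C: spheroids exposed to agents for 7 days; 100% = DMSO vehicle control viability.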

Compound	viability, T/C
O=C(c1cc(Cc2n[nH]c(=O)c3ccccc23)ccc1F)N1CCN(C(=O)C2CC2)CC1 + CC1OCC2(CCN(c3cnc(Sc4ccnc(N)c4Cl)c(N)n3)CC2)C1N	40.9%

Same assay, conditions: second compound 3.16 µM; first compound 0.316 µM; active compounds read low

Compound	viability, T/C
COC(=O)c1ccc2c(C(=Nc3ccc(N(C)C(=O)CN4CCN(C)CC4)cc3)c3ccccc3)c(O)[nH]c2c1 + CC1OCC2(CCN(c3cnc(Sc4ccnc(N)c4Cl)c(N)n3)CC2)C1N	35.2%
COc1cc(Nc2ncc3c(n2)-c2ccc(Cl)cc2C(c2c(F)cccc2OC)=NC3)ccc1C(=O)O + CC1OCC2(CCN(c3cnc(Sc4ccnc(N)c4Cl)c(N)n3)CC2)C1N	17.7%
COc1cc2nccc(Oc3ccc(NC(=O)C4(C(=O)Nc5ccc(F)cc5)CC4)cc3)c2cc1OC + CC1OCC2(CCN(c3cnc(Sc4ccnc(N)c4Cl)c(N)n3)CC2)C1N	36.3%
O=C(c1cc(Cc2n[nH]c(=O)c3ccccc23)ccc1F)N1CCN(C(=O)C2CC2)CC1 + CC1OCC2(CCN(c3cnc(Sc4ccnc(N)c4Cl)c(N)n3)CC2)C1N	41.4%

Same assay, conditions: second compound 3.16 µM; first compound 1 µM; active compounds read low

Compound	viability, T/C
COC(=O)c1ccc2c(C(=Nc3ccc(N(C)C(=O)CN4CCN(C)CC4)cc3)c3ccccc3)c(O)[nH]c2c1 + CC1OCC2(CCN(c3cnc(Sc4ccnc(N)c4Cl)c(N)n3)CC2)C1N	36%
COc1cc(Nc2ncc3c(n2)-c2ccc(Cl)cc2C(c2c(F)cccc2OC)=NC3)ccc1C(=O)O + CC1OCC2(CCN(c3cnc(Sc4ccnc(N)c4Cl)c(N)n3)CC2)C1N	23%
COc1cc2nccc(Oc3ccc(NC(=O)C4(C(=O)Nc5ccc(F)cc5)CC4)cc3)c2cc1OC + CC1OCC2(CCN(c3cnc(Sc4ccnc(N)c4Cl)c(N)n3)CC2)C1N	35.5%
O=C(c1cc(Cc2n[nH]c(=O)c3ccccc23)ccc1F)N1CCN(C(=O)C2CC2)CC1 + CC1OCC2(CCN(c3cnc(Sc4ccnc(N)c4Cl)c(N)n3)CC2)C1N	34.8%

Same assay, conditions: second compound 3.16 µM; first compound 3.16 µM; active compounds read low

Compound	viability, T/C
COC(=O)c1ccc2c(C(=Nc3ccc(N(C)C(=O)CN4CCN(C)CC4)cc3)c3ccccc3)c(O)[nH]c2c1 + CC1OCC2(CCN(c3cnc(Sc4ccnc(N)c4Cl)c(N)n3)CC2)C1N	31.9%
COc1cc(Nc2ncc3c(n2)-c2ccc(Cl)cc2C(c2c(F)cccc2OC)=NC3)ccc1C(=O)O + CC1OCC2(CCN(c3cnc(Sc4ccnc(N)c4Cl)c(N)n3)CC2)C1N	24.1%
COc1cc2nccc(Oc3ccc(NC(=O)C4(C(=O)Nc5ccc(F)cc5)CC4)cc3)c2cc1OC + CC1OCC2(CCN(c3cnc(Sc4ccnc(N)c4Cl)c(N)n3)CC2)C1N	35.2%
O=C(c1cc(Cc2n[nH]c(=O)c3ccccc23)ccc1F)N1CCN(C(=O)C2CC2)CC1 + CC1OCC2(CCN(c3cnc(Sc4ccnc(N)c4Cl)c(N)n3)CC2)C1N	36.8%

Same assay, conditions: second compound 3.16 µM; first compound 10 µM; active compounds read low

Compound	viability, T/C
COC(=O)c1ccc2c(C(=Nc3ccc(N(C)C(=O)CN4CCN(C)CC4)cc3)c3ccccc3)c(O)[nH]c2c1 + CC1OCC2(CCN(c3cnc(Sc4ccnc(N)c4Cl)c(N)n3)CC2)C1N	33.3%
COc1cc(Nc2ncc3c(n2)-c2ccc(Cl)cc2C(c2c(F)cccc2OC)=NC3)ccc1C(=O)O + CC1OCC2(CCN(c3cnc(Sc4ccnc(N)c4Cl)c(N)n3)CC2)C1N	28.3%
COc1cc2nccc(Oc3ccc(NC(=O)C4(C(=O)Nc5ccc(F)cc5)CC4)cc3)c2cc1OC + CC1OCC2(CCN(c3cnc(Sc4ccnc(N)c4Cl)c(N)n3)CC2)C1N	29.8%
O=C(c1cc(Cc2n[nH]c(=O)c3ccccc23)ccc1F)N1CCN(C(=O)C2CC2)CC1 + CC1OCC2(CCN(c3cnc(Sc4ccnc(N)c4Cl)c(N)n3)CC2)C1N	24.9%

Same assay, conditions: second compound 10 µM; first compound 0.0001 µM; active compounds read low

Compound	viability, T/C
CC(=O)Nc1cccc(-n2c(=O)n(C3CC3)c(=O)c3c(Nc4ccc(I)cc4F)n(C)c(=O)c(C)c32)c1 + CC1OCC2(CCN(c3cnc(Sc4ccnc(N)c4Cl)c(N)n3)CC2)C1N	29%

Same assay, conditions: second compound 10 µM; first compound 0.000316 µM; active compounds read low

Compound	viability, T/C
CC(=O)Nc1cccc(-n2c(=O)n(C3CC3)c(=O)c3c(Nc4ccc(I)cc4F)n(C)c(=O)c(C)c32)c1 + CC1OCC2(CCN(c3cnc(Sc4ccnc(N)c4Cl)c(N)n3)CC2)C1N	26.3%
CC(C)n1nc(-c2ccc3oc(N)nc3c2)c2c(N)ncnc21 + CC1OCC2(CCN(c3cnc(Sc4ccnc(N)c4Cl)c(N)n3)CC2)C1N	28.1%

Same assay, conditions: second compound 10 µM; first compound 0.001 µM; active compounds read low

Compound	viability, T/C
CC(=O)Nc1cccc(-n2c(=O)n(C3CC3)c(=O)c3c(Nc4ccc(I)cc4F)n(C)c(=O)c(C)c32)c1 + CC1OCC2(CCN(c3cnc(Sc4ccnc(N)c4Cl)c(N)n3)CC2)C1N	19.7%
CC(C)n1nc(-c2ccc3oc(N)nc3c2)c2c(N)ncnc21 + CC1OCC2(CCN(c3cnc(Sc4ccnc(N)c4Cl)c(N)n3)CC2)C1N	22.7%

Same assay, conditions: second compound 10 µM; first compound 0.00316 µM; active compounds read low

Compound	viability, T/C
CC(=O)Nc1cccc(-n2c(=O)n(C3CC3)c(=O)c3c(Nc4ccc(I)cc4F)n(C)c(=O)c(C)c32)c1 + CC1OCC2(CCN(c3cnc(Sc4ccnc(N)c4Cl)c(N)n3)CC2)C1N	17.7%
CC(C)n1nc(-c2ccc3oc(N)nc3c2)c2c(N)ncnc21 + CC1OCC2(CCN(c3cnc(Sc4ccnc(N)c4Cl)c(N)n3)CC2)C1N	15.6%

Same assay, conditions: second compound 10 µM; first compound 0.01 µM; active compounds read low

Compound	viability, T/C
CC(=O)Nc1cccc(-n2c(=O)n(C3CC3)c(=O)c3c(Nc4ccc(I)cc4F)n(C)c(=O)c(C)c32)c1 + CC1OCC2(CCN(c3cnc(Sc4ccnc(N)c4Cl)c(N)n3)CC2)C1N	14.8%
CC(C)n1nc(-c2ccc3oc(N)nc3c2)c2c(N)ncnc21 + CC1OCC2(CCN(c3cnc(Sc4ccnc(N)c4Cl)c(N)n3)CC2)C1N	6.84%

Same assay, conditions: second compound 10 µM; first compound 0.0316 µM; active compounds read low

Compound	viability, T/C
CC(=O)Nc1cccc(-n2c(=O)n(C3CC3)c(=O)c3c(Nc4ccc(I)cc4F)n(C)c(=O)c(C)c32)c1 + CC1OCC2(CCN(c3cnc(Sc4ccnc(N)c4Cl)c(N)n3)CC2)C1N	15.9%
CC(C)n1nc(-c2ccc3oc(N)nc3c2)c2c(N)ncnc21 + CC1OCC2(CCN(c3cnc(Sc4ccnc(N)c4Cl)c(N)n3)CC2)C1N	1.96%
COC(=O)c1ccc2c(C(=Nc3ccc(N(C)C(=O)CN4CCN(C)CC4)cc3)c3ccccc3)c(O)[nH]c2c1 + CC1OCC2(CCN(c3cnc(Sc4ccnc(N)c4Cl)c(N)n3)CC2)C1N	31.8%
COc1cc(Nc2ncc3c(n2)-c2ccc(Cl)cc2C(c2c(F)cccc2OC)=NC3)ccc1C(=O)O + CC1OCC2(CCN(c3cnc(Sc4ccnc(N)c4Cl)c(N)n3)CC2)C1N	29.9%
COc1cc2nccc(Oc3ccc(NC(=O)C4(C(=O)Nc5ccc(F)cc5)CC4)cc3)c2cc1OC + CC1OCC2(CCN(c3cnc(Sc4ccnc(N)c4Cl)c(N)n3)CC2)C1N	27.4%
O=C(c1cc(Cc2n[nH]c(=O)c3ccccc23)ccc1F)N1CCN(C(=O)C2CC2)CC1 + CC1OCC2(CCN(c3cnc(Sc4ccnc(N)c4Cl)c(N)n3)CC2)C1N	33.1%

Same assay, conditions: second compound 10 µM; first compound 0.1 µM; active compounds read low

Compound	viability, T/C
CC(C)n1nc(-c2ccc3oc(N)nc3c2)c2c(N)ncnc21 + CC1OCC2(CCN(c3cnc(Sc4ccnc(N)c4Cl)c(N)n3)CC2)C1N	0.92%
COC(=O)c1ccc2c(C(=Nc3ccc(N(C)C(=O)CN4CCN(C)CC4)cc3)c3ccccc3)c(O)[nH]c2c1 + CC1OCC2(CCN(c3cnc(Sc4ccnc(N)c4Cl)c(N)n3)CC2)C1N	30.3%
COc1cc(Nc2ncc3c(n2)-c2ccc(Cl)cc2C(c2c(F)cccc2OC)=NC3)ccc1C(=O)O + CC1OCC2(CCN(c3cnc(Sc4ccnc(N)c4Cl)c(N)n3)CC2)C1N	19.3%
COc1cc2nccc(Oc3ccc(NC(=O)C4(C(=O)Nc5ccc(F)cc5)CC4)cc3)c2cc1OC + CC1OCC2(CCN(c3cnc(Sc4ccnc(N)c4Cl)c(N)n3)CC2)C1N	28.8%
O=C(c1cc(Cc2n[nH]c(=O)c3ccccc23)ccc1F)N1CCN(C(=O)C2CC2)CC1 + CC1OCC2(CCN(c3cnc(Sc4ccnc(N)c4Cl)c(N)n3)CC2)C1N	33.1%

Same assay, conditions: second compound 10 µM; first compound 0.316 µM

Compound	outcome
O=C(c1cc(Cc2n[nH]c(=O)c3ccccc23)ccc1F)N1CCN(C(=O)C2CC2)CC1 + CC1OCC2(CCN(c3cnc(Sc4ccnc(N)c4Cl)c(N)n3)CC2)C1N	inactive

Same assay, conditions: second compound 10 µM; first compound 0.316 µM; active compounds read low

Compound	viability, T/C
COC(=O)c1ccc2c(C(=Nc3ccc(N(C)C(=O)CN4CCN(C)CC4)cc3)c3ccccc3)c(O)[nH]c2c1 + CC1OCC2(CCN(c3cnc(Sc4ccnc(N)c4Cl)c(N)n3)CC2)C1N	29.7%
COc1cc(Nc2ncc3c(n2)-c2ccc(Cl)cc2C(c2c(F)cccc2OC)=NC3)ccc1C(=O)O + CC1OCC2(CCN(c3cnc(Sc4ccnc(N)c4Cl)c(N)n3)CC2)C1N	17.4%
COc1cc2nccc(Oc3ccc(NC(=O)C4(C(=O)Nc5ccc(F)cc5)CC4)cc3)c2cc1OC + CC1OCC2(CCN(c3cnc(Sc4ccnc(N)c4Cl)c(N)n3)CC2)C1N	26.8%

Same assay, conditions: second compound 10 µM; first compound 1 µM; active compounds read low

Compound	viability, T/C
COC(=O)c1ccc2c(C(=Nc3ccc(N(C)C(=O)CN4CCN(C)CC4)cc3)c3ccccc3)c(O)[nH]c2c1 + CC1OCC2(CCN(c3cnc(Sc4ccnc(N)c4Cl)c(N)n3)CC2)C1N	27.5%
COc1cc(Nc2ncc3c(n2)-c2ccc(Cl)cc2C(c2c(F)cccc2OC)=NC3)ccc1C(=O)O + CC1OCC2(CCN(c3cnc(Sc4ccnc(N)c4Cl)c(N)n3)CC2)C1N	20.3%
COc1cc2nccc(Oc3ccc(NC(=O)C4(C(=O)Nc5ccc(F)cc5)CC4)cc3)c2cc1OC + CC1OCC2(CCN(c3cnc(Sc4ccnc(N)c4Cl)c(N)n3)CC2)C1N	30.3%
O=C(c1cc(Cc2n[nH]c(=O)c3ccccc23)ccc1F)N1CCN(C(=O)C2CC2)CC1 + CC1OCC2(CCN(c3cnc(Sc4ccnc(N)c4Cl)c(N)n3)CC2)C1N	28%

Same assay, conditions: second compound 10 µM; first compound 3.16 µM; active compounds read low

Compound	viability, T/C
COC(=O)c1ccc2c(C(=Nc3ccc(N(C)C(=O)CN4CCN(C)CC4)cc3)c3ccccc3)c(O)[nH]c2c1 + CC1OCC2(CCN(c3cnc(Sc4ccnc(N)c4Cl)c(N)n3)CC2)C1N	23.4%
COc1cc(Nc2ncc3c(n2)-c2ccc(Cl)cc2C(c2c(F)cccc2OC)=NC3)ccc1C(=O)O + CC1OCC2(CCN(c3cnc(Sc4ccnc(N)c4Cl)c(N)n3)CC2)C1N	20.9%
COc1cc2nccc(Oc3ccc(NC(=O)C4(C(=O)Nc5ccc(F)cc5)CC4)cc3)c2cc1OC + CC1OCC2(CCN(c3cnc(Sc4ccnc(N)c4Cl)c(N)n3)CC2)C1N	33.5%
O=C(c1cc(Cc2n[nH]c(=O)c3ccccc23)ccc1F)N1CCN(C(=O)C2CC2)CC1 + CC1OCC2(CCN(c3cnc(Sc4ccnc(N)c4Cl)c(N)n3)CC2)C1N	23.7%

Same assay, conditions: second compound 10 µM; first compound 10 µM; active compounds read low

Compound	viability, T/C
COC(=O)c1ccc2c(C(=Nc3ccc(N(C)C(=O)CN4CCN(C)CC4)cc3)c3ccccc3)c(O)[nH]c2c1 + CC1OCC2(CCN(c3cnc(Sc4ccnc(N)c4Cl)c(N)n3)CC2)C1N	23.2%
COc1cc(Nc2ncc3c(n2)-c2ccc(Cl)cc2C(c2c(F)cccc2OC)=NC3)ccc1C(=O)O + CC1OCC2(CCN(c3cnc(Sc4ccnc(N)c4Cl)c(N)n3)CC2)C1N	23.3%
COc1cc2nccc(Oc3ccc(NC(=O)C4(C(=O)Nc5ccc(F)cc5)CC4)cc3)c2cc1OC + CC1OCC2(CCN(c3cnc(Sc4ccnc(N)c4Cl)c(N)n3)CC2)C1N	27.3%
O=C(c1cc(Cc2n[nH]c(=O)c3ccccc23)ccc1F)N1CCN(C(=O)C2CC2)CC1 + CC1OCC2(CCN(c3cnc(Sc4ccnc(N)c4Cl)c(N)n3)CC2)C1N	19%
